Source: patent US4191763A
Read-outs that look alike come from different tables or passages of the source.

Tests used:
[1] = test system: Ascaris lumbricoides var. suum; test: anthelmintic activity in mice infected with Ascaris, medicated feed; format: in vivo; settings: Example 13, 0.05 percent in diet; control 2.66
Description: The feeds were utilized as diets for separate groups of mice, five mice per group. About twelve hours after initiation of the feeding, the mice were infected with Ascaris lumbricoides var. summ ova. Another group of five mice was fed the non-medicated feed to serve as a control but was similarly infected at the same time with Ascaris lumbricoides var. suum. All groups were fed their respective feed and maintained under normal laboratory conditions for a period of eight days, at which time all mice were taken off feed. On the ninth day, all mice were sacrificed and the lungs examined to determine the presence, and if present, numbers, of lesions of Ascaris lumbricoides var. suum.
Another evaluation was conducted under the procedures reported in Example 11, except that the rates were varied. The results were as follows:
In a further evaluation, the monoammonium salts of A16886I and A16886II were separately evaluated for the control of Ascaris lumbricoides var. suum. The evaluations were conducted in accordance with the procedure reported in Example 11 at a concentration in the diet of 0.05 percent.

Pseudomonas solanacearum = format: in vivo, tomato plants; settings: scale 0 (no control) to 4 (complete control)
Xanthomonas vesicatoria = test: field trial, control of bacterial spot on tomato plants; format: in vivo
Description: (§1) A mixture of the monoammonium salt of A16886I and the monoammonium salt of A16886II was tested under field conditions for the control of Xanthomonas vesicatoria (bacterial spot) on mature bearing tomato plants. The mixture of the two salts was dispersed in water at a concentration of 100, 200, or 400 parts per million and applied to the plants at the rate of 75 gallons per acre. Application was made with a CO2 sprayer at 50 psi. Plants were sprayed twice, on successive days; after the second spray had dried, all plants were wounded by sand blasting and then within one minute the plants were inoculated with a bacterial inoculum of Xanthomonas vesicatoria. Three days later, a third spray application of the aqueous formulation of A16886 was made. Readings were made one week and two weeks after the last spray treatment. Controls consisted of groups of plants (1) sand blasted and inoculated; (2) sand blasted only; (3) untreated; and (4) treated with streptomycin (on the same three-day spraying schedule, at a concentration of 100, 200, or 400 parts per million of aqueous solution, using a rate of 75 gallons per acre), sand blasted, and inoculated. The results were as set forth in the following table, in which crop injury is reported on a scale of 0-10, with 0=no injury and 10=dead plants; and control of bacterial spot is reported on a percentage basis.

tomato plants = test: field trial, crop injury; format: in vivo; settings: scale 0 (no injury) to 10 (dead plants)
Description: as §1

[2] = First Reading, 100 parts/million
[3] = First Reading, 200 parts/million
[4] = First Reading, 400 parts/million
[5] = Second Reading, 100 parts/million
[6] = Second Reading, 200 parts/million
[7] = Second Reading, 400 parts/million

Row | SMILES | Average Number of Lung Lesions Per Group [1] | Disease Rating (Pseudomonas solanacearum; Example 7, 10 ppm.) | Disease Rating (Pseudomonas solanacearum; Example 7, 100 ppm.) | rating (Pseudomonas solanacearum; Example 8, 100 ppm.) | rating (Pseudomonas solanacearum; Example 8, 200 ppm.) | rating (Pseudomonas solanacearum; Example 8, 400 ppm.) | Percent Bacterial Spot Control (Xanthomonas vesicatoria; [2]) [%] | Percent Bacterial Spot Control (Xanthomonas vesicatoria; [3]) [%] | Percent Bacterial Spot Control (Xanthomonas vesicatoria; [4]) [%] | Percent Bacterial Spot Control (Xanthomonas vesicatoria; [5]) [%] | Percent Bacterial Spot Control (Xanthomonas vesicatoria; [6]) [%] | Percent Bacterial Spot Control (Xanthomonas vesicatoria; [7]) [%] | Crop Injury Ratings (tomato plants; [2]) | Crop Injury Ratings (tomato plants; [3]) | Crop Injury Ratings (tomato plants; [4]) | Crop Injury Ratings (tomato plants; [5]) | Crop Injury Ratings (tomato plants; [6]) | Crop Injury Ratings (tomato plants; [7])
1 | NC(=O)OCC1=C(C(=O)O)N2C(=O)C(NC(=O)CCCC(N)C(=O)O)[C@H]2SC1 (stereo partly drawn) [7-(5-amino-5-carboxyvaleramido)-3-(carbamoyloxymethyl)-3-cephem-4-carboxylic acid] | 0.20 | 1 | 4 |  |  |  |  |  |  |  |  |  |  |  |  |  |  | 
2 | COC1(NC(=O)CCCC(N)C(=O)O)C(=O)N2C(C(=O)O)=C(COC(N)=O)CS[C@@H]21 (stereo partly drawn) [7-(5-amino-5-carboxyvaleramido)-3-(carbamoyloxymethyl)-7-methoxy-3-cephem-4-carboxylic acid] | 0.46 | 2 | 4 | 4 | 4 | 4 |  |  |  |  |  |  |  |  |  |  |  | 
3 | [H]/N=C(/N)N[C@H]1[C@H](O)[C@@H](O)[C@H](O[C@@H]2O[C@@H](C)[C@](O)(C=O)[C@H]2O[C@@H]2O[C@@H](CO)[C@H](O)[C@@H](O)[C@@H]2NC)[C@@H](N/C(N)=N\[H])[C@@H]1O [Streptomycin] |  |  |  |  |  |  | 83 | 81 | 83 | 57 | 37 | 59 | 0 | 0 | 0 | 0 | 0 | 0
